Measurements reported in US20260262643A1, “HERBICIDAL BENZOXAZINES” (FMC CORPORATION, priority 2022, published 2026).

Key:
oat, wild [1] = test: Test A postemergence; assay type: in vivo, Avena fatua; conditions: postemergence, 10 days
Method in brief: (§1)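 Plants were grown in loam and sand and treated preemergence or postemergence (one- to two-leaf stage, 2–10 cm) with compound in solvent plus surfactant. Response was scored against untreated controls after 10 greenhouse days, where 0 means no effect and 100 complete control.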

foxtail, giant [2] = test: Test A postemergence; assay type: in vivo, Setaria faberi; conditions: postemergence, 10 days
Method in brief: as §1

pigweed, palmer [3] = test: Test A postemergence; assay type: in vivo, Amaranthus palmeri; conditions: postemergence, 10 days
Method in brief: as §1

barnyardgrass [4] = test: Test A postemergence; assay type: in vivo, Echinochloa crusgalli; conditions: postemergence, 10 days
Method in brief: as §1

ragweed [5] = test: Test A preemergence; assay type: in vivo, Ambrosia artemisiifolia; conditions: visual injury after 10 days, 0 to 100 scale, 0 is no effect, 100 is complete control
Method in brief: as §1

foxtail, giant [6] = test: Test A preemergence; assay type: in vivo, Setaria faberi; conditions: visual injury after 10 days, 0 to 100 scale, 0 is no effect, 100 is complete control
Method in brief: as §1

blackgrass [7] = test: Test A postemergence; assay type: in vivo, Alopecurus myosuroides; conditions: postemergence, 10 days
Method in brief: as §1

corn [8] = test: Test A preemergence; assay type: in vivo, Zea mays; conditions: visual injury after 10 days, 0 to 100 scale, 0 is no effect, 100 is complete control
Method in brief: as §1

corn [9] = test: Test A postemergence; assay type: in vivo, Zea mays; conditions: postemergence, 10 days
Method in brief: as §1

wheat [10] = test: Test A preemergence; assay type: in vivo, Triticum aestivum; conditions: visual injury after 10 days, 0 to 100 scale, 0 is no effect, 100 is complete control
Method in brief: as §1

galium = test: Test A postemergence; assay type: in vivo, Galium aparine; conditions: postemergence, 10 days
Method in brief: as §1

oat, wild [11] = test: Test A preemergence; assay type: in vivo, Avena fatua; conditions: visual injury after 10 days, 0 to 100 scale, 0 is no effect, 100 is complete control
Method in brief: as §1

pigweed, palmer [12] = test: Test A preemergence; assay type: in vivo, Amaranthus palmeri; conditions: visual injury after 10 days, 0 to 100 scale, 0 is no effect, 100 is complete control
Method in brief: as §1

horseweed = test: Test A postemergence; assay type: in vivo, Erigeron canadensis; conditions: postemergence, 10 days
Method in brief: as §1

wheat [13] = test: Test A postemergence; assay type: in vivo, Triticum aestivum; conditions: postemergence, 10 days
Method in brief: as §1

ragweed [14] = test: Test A postemergence; assay type: in vivo, Ambrosia artemisiifolia; conditions: postemergence, 10 days
Method in brief: as §1

ryegrass, Italian [15] = test: Test A preemergence; assay type: in vivo, Lolium multiflorum; conditions: visual injury after 10 days, 0 to 100 scale, 0 is no effect, 100 is complete control
Method in brief: as §1

barnyardgrass [16] = test: Test B flooded paddy test; assay type: in vivo, Echinochloa crus-galli; conditions: 250 g ai/ha, Flood, 13 days, 0 to 100 scale (0 no effect, 100 complete control)
Method in brief: (§2)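 2-leaf stage; pots flooded 3 cm over soil; compound dosed into paddy water; depth kept constant. Greenhouse, 13 d. Visual rating vs controls, 0 (no effect)–100 (complete control). Dash = no result.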

rice = test: Test B flooded paddy test; assay type: in vivo, Oryza sativa; conditions: 250 g ai/ha, Flood, 13 days, 0 to 100 scale (0 no effect, 100 complete control)
Method in brief: as §2

ducksalad = test: Test B flooded paddy test; assay type: in vivo, Heteranthera limosa; conditions: 250 g ai/ha, Flood, 13 days, 0 to 100 scale (0 no effect, 100 complete control)
Method in brief: as §2

kochia [17] = test: Test A preemergence; assay type: in vivo, Bassia scoparia; conditions: visual injury after 10 days, 0 to 100 scale, 0 is no effect, 100 is complete control
Method in brief: as §1

barnyardgrass [18] = test: Test A preemergence; assay type: in vivo, Echinochloa crusgalli; conditions: visual injury after 10 days, 0 to 100 scale, 0 is no effect, 100 is complete control
Method in brief: as §1

sedge, umbrella = test: Test B flooded paddy test; assay type: in vivo, Cyperus difformis; conditions: 250 g ai/ha, Flood, 13 days, 0 to 100 scale (0 no effect, 100 complete control)
Method in brief: as §2

soybean [19] = test: Test A postemergence; assay type: in vivo, Glycine max; conditions: 500 g ai/ha, postemergence, 10 days, visual injury, 0 to 100 scale (0 no effect, 100 complete control)
Method in brief: as §1

kochia [20] = test: Test A postemergence; assay type: in vivo, Bassia scoparia; conditions: postemergence, 10 days
Method in brief: as §1

soybean [21] = test: Test A preemergence; assay type: in vivo, Glycine max; conditions: visual injury after 10 days, 0 to 100 scale, 0 is no effect, 100 is complete control
Method in brief: as §1

ryegrass, Italian [22] = test: Test A postemergence; assay type: in vivo, Lolium multiflorum; conditions: postemergence, 10 days
Method in brief: as §1

blackgrass [23] = test: Test A preemergence; assay type: in vivo, Alopecurus myosuroides; conditions: visual injury after 10 days, 0 to 100 scale, 0 is no effect, 100 is complete control
Method in brief: as §1

[24] = 125 g ai/ha, 0 to 100 scale, 0 no effect, 100 complete control
[25] = 500 g ai/ha, visual injury, 0 to 100 scale (0 no effect, 100 complete control)

CC(C)c1ncn(-c2ccc(OC(F)(F)F)c(C(=O)N3C[C@H](C)Oc4c(Cl)cccc43)c2)n1 [Compound 111]
Oat, Wild plant response rating (oat, wild [1]; [24]): 40
Plant response rating, Oat, Wild (oat, wild [1]; [25]): 50
Foxtail, Giant plant response rating (foxtail, giant [2]; [24]): 90
Plant response rating, Foxtail, Giant (foxtail, giant [2]; [25]): 90
Pigweed, Palmer plant response rating (pigweed, palmer [3]; [24]): 70
Plant response rating, Pigweed, Palmer (pigweed, palmer [3]; [25]): 90
Barnyardgrass plant response rating (barnyardgrass [4]; [24]): 30
Plant response rating, Barnyardgrass (barnyardgrass [4]; [25]): 80
Plant response rating, Ragweed (ragweed [5]; 125 g ai/ha): 20
Plant response rating, Ragweed (ragweed [5]; 500 g ai/ha): 90
Plant response rating, Foxtail, Giant (foxtail, giant [6]; 125 g ai/ha): 100
Plant response rating, Foxtail, Giant (foxtail, giant [6]; 500 g ai/ha): 100
Blackgrass plant response rating (blackgrass [7]; [24]): 40
Plant response rating, Blackgrass (blackgrass [7]; [25]): 50
Plant response rating, Corn (corn [8]; 125 g ai/ha): 30
Plant response rating, Corn (corn [8]; 500 g ai/ha): 40
Corn plant response rating (corn [9]; [24]): 40
Plant response rating, Corn (corn [9]; [25]): 80
Plant response rating, Wheat (wheat [10]; 125 g ai/ha): 60
Plant response rating, Wheat (wheat [10]; 500 g ai/ha): 90
Galium plant response rating (galium; [24]): 100
Plant response rating, Galium (galium; [25]): 100
Plant response rating, Oat, Wild (oat, wild [11]; 125 g ai/ha): 70
Plant response rating, Oat, Wild (oat, wild [11]; 500 g ai/ha): 90
Plant response rating, Pigweed, Palmer (pigweed, palmer [12]; 125 g ai/ha): 90
Plant response rating, Pigweed, Palmer (pigweed, palmer [12]; 500 g ai/ha): 100
Horseweed plant response rating (horseweed; [24]): 10
Plant response rating, Horseweed (horseweed; [25]): 50
Wheat plant response rating (wheat [13]; [24]): 10
Plant response rating, Wheat (wheat [13]; [25]): 40
Ragweed plant response rating (ragweed [14]; [24]): 60
Plant response rating, Ragweed (ragweed [14]; [25]): 70
Plant response rating, Ryegrass, Italian (ryegrass, Italian [15]; 125 g ai/ha): 70
Plant response rating, Ryegrass, Italian (ryegrass, Italian [15]; 500 g ai/ha): 100
Plant response rating, Barnyardgrass (barnyardgrass [16]): 55
Plant response rating, Rice (rice): 0
Plant response rating, Ducksalad (ducksalad): 65
Plant response rating, Kochia (kochia [17]; 125 g ai/ha): 80
Plant response rating, Kochia (kochia [17]; 500 g ai/ha): 90
Plant response rating, Barnyardgrass (barnyardgrass [18]; 125 g ai/ha): 90
Plant response rating, Barnyardgrass (barnyardgrass [18]; 500 g ai/ha): 100
Plant response rating, Sedge, Umbrella (sedge, umbrella): 98
Plant response rating, Soybean (soybean [19]): 100
Kochia plant response rating (kochia [20]; [24]): 80
Plant response rating, Kochia (kochia [20]; [25]): 100
Plant response rating, Soybean (soybean [21]; 125 g ai/ha): 70
Plant response rating, Soybean (soybean [21]; 500 g ai/ha): 100
Ryegrass, Italian plant response rating (ryegrass, Italian [22]; [24]): 30
Plant response rating, Ryegrass, Italian (ryegrass, Italian [22]; [25]): 60
Plant response rating, Blackgrass (blackgrass [23]; 125 g ai/ha): 30
Plant response rating, Blackgrass (blackgrass [23]; 500 g ai/ha): 70
